Species: Rattus norvegicus
Assay: Open TG-GATES - Regimen: Single
Assay type: toxicity, organism-based, Sprague-Dawley
Design: regimen Single, gender Male, age 6 weeks
Conditions: in vivo, po, 0 mg/kg, route gavage, dose level Control; for APTT / Bas / Eos / Fbg / Hb / Lym / MCH / MCHC / MCV / Mono / Neu / PT / Plat / RBC / Ret / WBC: tissue Blood; for KIDNEY_L / KIDNEY_R / KIDNEY_TOTAL: tissue Kidney; for LIVER: tissue Liver; for ALP / ALT / AST / BUN / CRE / Ca / Cl / DBIL / GLC / IP / K / LDH / Na / PL / RALB / TBIL / TC / TG / TP / gamma-GTP: tissue Plasma

OCCN1CCN(CCCN2c3ccccc3Sc3ccc(C(F)(F)F)cc32)CC1 [FLUPHENAZINE]
TERMINAL_BW (3 h): 199 g
APTT (3 h): 16.1 s
Bas (3 h): 0%
Eos (3 h): 0.6%
Fbg (3 h): 228.2 mg/dL
Hb (3 h): 13.1 g/dL
Lym (3 h): 80.4%
MCH (3 h): 21.2 pg
MCHC (3 h): 33%
MCV (3 h): 64.3 fL
Mono (3 h): 6.8%
Neu (3 h): 12.2%
PT (3 h): 12.5 s
Plat (3 h): 106.1 x10_4/uL
RBC (3 h): 617.6 x10_4/ul
Ret (3 h): 7.6%
WBC (3 h): 113.1 x10_2/uL
KIDNEY_L (3 h): 0.9 g
KIDNEY_R (3 h): 0.9 g
KIDNEY_TOTAL (3 h): 1.9 g
LIVER (3 h): 9.6 g
ALP (3 h): 888.6 IU/L
ALT (3 h): 34.8 IU/L
AST (3 h): 63.4 IU/L
BUN (3 h): 13 mg/dL
CRE (3 h): 0.5 mg/dL
Ca (3 h): 10.9 mg/dL
Cl (3 h): 104.2 meq/L
DBIL (3 h): 0.006 mg/dL
GLC (3 h): 179 mg/dL
IP (3 h): 10.3 mg/dL
K (3 h): 5.1 meq/L
LDH (3 h): 86.2 IU/L
Na (3 h): 138 meq/L
PL (3 h): 154.2 mg/dL
RALB (3 h): 3.9 g/dL
TBIL (3 h): 0.3 mg/dL
TC (3 h): 85.8 mg/dL
TG (3 h): 53.6 mg/dL
TP (3 h): 5.5 g/dL
gamma-GTP (3 h): 1.4 IU/L
TERMINAL_BW (6 h): 196.6 g
APTT (6 h): 16.4 s
Bas (6 h): 0%
Eos (6 h): 1%
Fbg (6 h): 214.4 mg/dL
Hb (6 h): 13 g/dL
Lym (6 h): 75.8%
MCH (6 h): 21.6 pg
MCHC (6 h): 33.2%
MCV (6 h): 65.1 fL
Mono (6 h): 8.2%
Neu (6 h): 15.4%
PT (6 h): 12.8 s
Plat (6 h): 108.7 x10_4/uL
RBC (6 h): 601.2 x10_4/ul
Ret (6 h): 8.4%
WBC (6 h): 105.2 x10_2/uL
KIDNEY_L (6 h): 0.9 g
KIDNEY_R (6 h): 0.9 g
KIDNEY_TOTAL (6 h): 1.8 g
LIVER (6 h): 8.6 g
ALP (6 h): 819.6 IU/L
ALT (6 h): 33.6 IU/L
AST (6 h): 67.4 IU/L
BUN (6 h): 11.2 mg/dL
CRE (6 h): 0.5 mg/dL
Ca (6 h): 10.2 mg/dL
Cl (6 h): 105.8 meq/L
DBIL (6 h): 0.03 mg/dL
GLC (6 h): 180.8 mg/dL
IP (6 h): 10 mg/dL
K (6 h): 4.7 meq/L
LDH (6 h): 93 IU/L
Na (6 h): 137 meq/L
PL (6 h): 118.2 mg/dL
RALB (6 h): 3.6 g/dL
TBIL (6 h): 0.4 mg/dL
TC (6 h): 65.8 mg/dL
TG (6 h): 36.8 mg/dL
TP (6 h): 5.3 g/dL
gamma-GTP (6 h): 1.6 IU/L
TERMINAL_BW (9 h): 197.8 g
APTT (9 h): 16.6 s
Bas (9 h): 0%
Eos (9 h): 0.8%
Fbg (9 h): 220.8 mg/dL
Hb (9 h): 12.6 g/dL
Lym (9 h): 77.6%
MCH (9 h): 21.7 pg
MCHC (9 h): 33.1%
MCV (9 h): 65.6 fL
Mono (9 h): 9%
Neu (9 h): 13.2%
PT (9 h): 12.5 s
Plat (9 h): 111.9 x10_4/uL
RBC (9 h): 581.6 x10_4/ul
Ret (9 h): 8.6%
WBC (9 h): 107.8 x10_2/uL
KIDNEY_L (9 h): 0.9 g
KIDNEY_R (9 h): 0.9 g
KIDNEY_TOTAL (9 h): 1.9 g
LIVER (9 h): 8.6 g
ALP (9 h): 831.6 IU/L
ALT (9 h): 29.2 IU/L
AST (9 h): 58.8 IU/L
BUN (9 h): 11.8 mg/dL
CRE (9 h): 0.5 mg/dL
Ca (9 h): 10.3 mg/dL
Cl (9 h): 103.8 meq/L
DBIL (9 h): 0.012 mg/dL
GLC (9 h): 186.4 mg/dL
IP (9 h): 10.2 mg/dL
K (9 h): 4.6 meq/L
LDH (9 h): 86.4 IU/L
Na (9 h): 137.2 meq/L
PL (9 h): 145 mg/dL
RALB (9 h): 3.7 g/dL
TBIL (9 h): 0.3 mg/dL
TC (9 h): 84.6 mg/dL
TG (9 h): 46.8 mg/dL
TP (9 h): 5.4 g/dL
gamma-GTP (9 h): 1.2 IU/L
TERMINAL_BW (24 h): 211.2 g
APTT (24 h): 16.8 s
Bas (24 h): 0%
Eos (24 h): 0.2%
Fbg (24 h): 217.6 mg/dL
Hb (24 h): 12.9 g/dL
Lym (24 h): 80.8%
MCH (24 h): 22.4 pg
MCHC (24 h): 33.4%
MCV (24 h): 67.1 fL
Mono (24 h): 7.4%
Neu (24 h): 11.4%
PT (24 h): 12 s
Plat (24 h): 113.4 x10_4/uL
RBC (24 h): 574.6 x10_4/ul
Ret (24 h): 8%
WBC (24 h): 137.9 x10_2/uL
KIDNEY_L (24 h): 0.9 g
KIDNEY_R (24 h): 1 g
KIDNEY_TOTAL (24 h): 1.9 g
LIVER (24 h): 10.7 g
ALP (24 h): 951.8 IU/L
ALT (24 h): 38.6 IU/L
AST (24 h): 69.6 IU/L
BUN (24 h): 18.8 mg/dL
CRE (24 h): 0.5 mg/dL
Ca (24 h): 11.1 mg/dL
Cl (24 h): 104.2 meq/L
DBIL (24 h): 0.012 mg/dL
GLC (24 h): 183.8 mg/dL
IP (24 h): 8.8 mg/dL
K (24 h): 4.9 meq/L
LDH (24 h): 107.4 IU/L
Na (24 h): 137.4 meq/L
PL (24 h): 160.8 mg/dL
RALB (24 h): 4 g/dL
TBIL (24 h): 0.3 mg/dL
TC (24 h): 80 mg/dL
TG (24 h): 134.2 mg/dL
TP (24 h): 5.8 g/dL
gamma-GTP (24 h): 1.8 IU/L

Reference: ChEMBL document CHEMBL3885861, “Open TG-GATES”
